{
  "source": "patent EP0926242A1",
  "about": "“GLIOTOXIN DERIVATIVES AND ANTICANCER AGENT COMPRISING THE SAME” (priority 1996, dated 1998)",
  "key": {"[1]": {"assay": "Body weight in the COLON-26 evaluation in vivo (Example 1)", "design": "species or system CDFI mice", "details": "day 21, COLON-26 mice, control 24.7 g", "description": "CDFI mice (female: 4 weeks old) were bought, and colon-26 subcultured in vivo in the subcutaneous tissue was taken out. The colon-26 was minced in a Petridish, and transplanted into the sulcutaneous tissue of CDFI mice in an amount of 10 mg/mouse by a trucker. The transplanted day was assigned day 0, and the size of the tumor and body weight were measured on day 7 and divided into groups by n=4. The size of tumor was calculated as tumor weight by the following formula. (Tumor Weight (mg) = Tumor Volume (mm)^3 =1/2 × Major Axis (mm) × Minor Axis (mm))^2 [formula]\nAdministration was carried out from day 7 according to the following schedule. Dose was 0.2 mL/mouse, and injected into abdominal cavity. Acetylgliotoxin was dissolved in dimethyl sulfoxide (DMSO) in a concentration of 100 mg/mL, and adjusted to an object concentration (0.5 mg/kg, 1 mg/kg, 10 mg/kg, 20 mg/kg) by 5% Tween 80 (saline solution). In the evaluation of […], 1 mg/kg, injection was carried out every day for 5 days, in the case of 10 mg/kg, injected twice on day 7 and day 8, and in the case of 20 mg/kg, injected once on day 7."}, "[2]": {"system": "mouse carcinoma of the colon cells colon 26", "assay": "Anticancer effect in vivo against colon 26 (Example 9 A)", "details": "CDFI mice", "description": "• (A) Evaluationin vivo using mouse carcinoma of the colon cells colon 26 CDFI mice (female : 4 weks age) were bought, and colon 26 subcultured in the subcutaneous tissue of the mouse was taken out, and cut into small pieces by a scissors. The cancer cells were transplanted into subcutaneous tisue of CDFI mice by a trucker. The day was assigned 0 day, and the tumor was measured by a slide caliper after 7 days. The volume of the tumor was calculated, and divided into groups (each group : n = 4). The text compound was dissolved in dimethylsulfoxide, and diluted with 5 % Tween 80- saline aqueous solution. […] The administration was carried out after 7 days, after 11 days and after 15 days or after 7 days and after 8 days from the transplantation at a rate of once per one day. 21st day from the transplantation, the volume of tumor was measured and the volume of tumor and the inhibition against tumor multiplication rate (I.R.) were calculated. The volume of tumor was calculated by the following formula. (Tumore Volume [mm)^3 (]= Minor Axis [mm])^2 × Major Axis [mm] × (1/2) [formula] • The inhibition against tumor multiplication rate (I.R.) was calculated by the following formula. I.R. [%] = {1- (Average Tumor Volume of Administration Group / Average Tumor Volume of Control Group)) × 100 [formula] • (B) Evaluation in vivo using human carcinoma of the colon cells HCT-116 Balb/c nu/nu mice (female : 5 weks age) were bought, and HCT-116 (Dainippon Seiyaku) subcultured in the subcutaneous tissue of the mouse was taken out, and cut into small pieces by a scissors. The cancer cells were transplanted into subcutaneous tissue of […] mice by a trucker. The day was assigned 0 day, and the tumor was measured by a slide caliper after 7 days. The volume of the tumor was calculated, and divided into groups (each group : n = 2). The text compound was dissolved in dimethylsulfoxide, and diluted with 5 % Tween 80- saline aqueous solution. […] The administration was carried out after 7 days, after 11 days and after 15 days from the transplantation at a rate of once per one day. 21st day from the transplantation, the volume of tumor was measured and the volume of tumor and the inhibition against tumor multiplication rate (I.R.) were calculated by the above formulas."}, "[3]": {"system": "HCT-116 (human carcinoma of the colon)", "assay": "Cytotoxity of acetylgliotoxin by the MTT method", "format": "cell-based", "details": "HCT-116, 72 hours", "description": "(§1) Antitumor activity of acetylgliotoxin against various cancer cells was measured by the MTT method. Various cancer cells were adjusted to 4.0 × 10^4 cells/mL by using a medium (hereinafter referred to as medium A) composed of RPMI 1640 medium (GIBCO) containing 10% fetal calf serum, and each 0.1 mL of the cancer cells was pipetted into each well of a 96 well microtiter plate. The plate was incubated in a carbon dioxide gas incubator at 37 °C for 20 hours, and each 0.025 mL of samples (test compounds) suitably diluted with the medium A was added. Then, incubation was further carried out in the carbon dioxide gas incubator at 37 °C for 72 hours. Each 0.01 mL of the MTT solution adjusted to 5 mg/mL by using Dulbecco's PBS (-) (Nissui) was added thereto, and incubated in the carbon dioxide gas incubator at 37 °C for 3 hours. Subsequently, each 0.05 mL of 0.01 N HCl/20 % SDS was added. Produced crystals were dissolved, and absorbance at 570 nm was measured by a microplate reader. By comparing the absorbance of the cells treated with the sample in the known concentration with that of non-treated cells, the sample concentration which inhibits multiplication of the cells at the rate of 50% (IC50) was calculated. Apoptosis was determined by incubating the plate in the carbon dioxide gas incubator at 37 °C for 20 hours, adding each 0.025 mL of samples (test compounds) suitably diluted with the medium A, incubating in the carbon dioxide gas incubator at 37 °C for 72 hours, according to the above method, adding nucleus-staining fluorescent dye DAPI (4,6 - diaminodino-2-henylindole) to each well so as to become 0.5 ng/mL, and after leaving at room temperature for 10 minutes, confirming agglomeration of chromosomes by using a fluorescence microscope.\n(§2) Human leukemia cells (K 562 : Dainippon Seiyaku), human carcinoma cells of the colon (HCT-15, HCT-116, SW946: Dainippon Seiyaku), human leukemia cells (U 937: Dainippon Seiyaku), human lung cancer cells (LX-1: Biseibutsu Kagaku Kenkyu-sho), mouse leukemia cells (P 388 : Dainippon Seiyaku), mouse carcinoma cells of the colon (colon-26 : Gan Kenkyu-kai, Gan Kenkyu-sho) Table 1"}, "[4]": {"system": "colon-26 (mouse carcinoma of the colon )", "assay": "Cytotoxity of acetylgliotoxin by the MTT method", "format": "cell-based", "details": "colon-26, 72 hours", "description": "as §1, §2"}, "[5]": {"system": "SW948 (human carcinoma of the colon)", "assay": "Cytotoxity of acetylgliotoxin by the MTT method", "format": "cell-based", "details": "SW948, 72 hours", "description": "as §1, §2"}, "P388 (mouse leukemia )": {"system": "P388 (mouse leukemia )", "assay": "Cytotoxity of acetylgliotoxin by the MTT method", "format": "cell-based", "details": "P388, 72 hours", "description": "as §1, §2"}, "U937 (human leukemia )": {"system": "U937 (human leukemia )", "assay": "Cytotoxity of acetylgliotoxin by the MTT method", "format": "cell-based", "details": "U-937, U937, 72 hours", "description": "as §1, §2"}, "[6]": {"system": "LX-1 (human lung cancer )", "assay": "Cytotoxity of acetylgliotoxin by the MTT method", "format": "cell-based", "details": "LX-1, 72 hours", "description": "as §1, §2"}, "[7]": {"system": "HCT-15 (human carcinoma of the colon)", "assay": "Cytotoxity of acetylgliotoxin by the MTT method", "format": "cell-based", "details": "HCT-15, 72 hours", "description": "as §1, §2"}, "[8]": {"details": "2.5[mg/kg]×3 (i.p.), 7,11,15th days"}, "[9]": {"details": "5 [mg/kg]×3 (i.p.), 7,11,15th days"}, "[10]": {"details": "10 [mg/kg]×2 (i.p.), 7,8th days"}},
  "data": [
    {"smiles": "CC(=O)OC1C=CC=C2CC34SSC(CO)(C(=O)N3C21)N(C)C4=O", "note": "(centres unmarked) [acetylgliotoxin]", "values": [
      {"measurement": "weight", "setting": "[1]; 0.5 mg/kg×5 i.p.(d7-11)", "value": 24.7, "unit": "g"},
      {"measurement": "weight", "setting": "[1]; 1 mg/kg×5 i.p.(d7-11)", "value": 24.9, "unit": "g"},
      {"measurement": "weight", "setting": "[1]; 10 mg/kg×2 i.p.(d7, 8)", "value": 24.1, "unit": "g"},
      {"measurement": "weight", "setting": "[1]; 20 mg/kg×1 i.p.(d7)", "value": 25.2, "unit": "g"},
      {"measurement": "I.R. (21st day)", "setting": "[2]; [8]", "value": 19.6, "unit": "%"},
      {"measurement": "I.R.Max", "setting": "[2]; [8]", "value": 44.9, "unit": "%"},
      {"measurement": "I.R. (21st day)", "setting": "[2]; [9]", "value": 11.8, "unit": "%"},
      {"measurement": "I.R.Max", "setting": "[2]; [9]", "value": 56.8, "unit": "%"},
      {"measurement": "I.R. (21st day)", "setting": "[2]; [10]", "value": 26.0, "unit": "%"},
      {"measurement": "I.R.Max", "setting": "[2]; [10]", "value": 68.8, "unit": "%"},
      {"measurement": "IC50", "setting": "[3]", "value": 0.18, "unit": "µg/mL"},
      {"measurement": "IC50", "setting": "[4]", "value": 0.076, "unit": "µg/mL"},
      {"measurement": "IC50", "setting": "[5]", "value": 0.19, "unit": "µg/mL"},
      {"measurement": "IC50", "setting": "P388 (mouse leukemia )", "value": 0.0058, "unit": "µg/mL"},
      {"measurement": "IC50", "setting": "U937 (human leukemia )", "value": 0.014, "unit": "µg/mL"},
      {"measurement": "IC50", "setting": "[6]", "value": 0.074, "unit": "µg/mL"},
      {"measurement": "IC50", "setting": "[7]", "value": 0.039, "unit": "µg/mL"}
    ]}
  ]
}
